Literature values, collected in patent US10611908B2, “Micelles for mucoadhesive drug delivery” (McMaster University, priority 2015, dated 2020).

pKa | SMILES
~4.6 | C=C(C)C(=O)O [MAA, methacrylic acid]
~8.8 | OB(O)c1ccccc1 [PBA, Phenylboronic acid]
